According to publication PMC12228718, “A porin-like protein used by bacterial predators defines a wider lipid-trapping superfamily” (Nature Communications, 2025):

Legend:
PopAhis = biological target: T1, PopAhis (Bdellovibrio bacteriovorus, UniProt Q6MQN4); test: liposome swelling assay (OD400); assay type: biochemical; conditions: relative to OmpF with L-arabinose = 100%; pH 7.0 proteoliposomes; passive permeation
T1 construct: gene Bd0427; mature PopA with internal His tag SSHHHHHHGSS inserted after A103 (loop 2); pelB leader at start; pET29b, E. coli BL21(DE3) RIPL; native folded, DDM-solubilised; homopentamer
T1 sequence (Q6MQN4 entry or part of it): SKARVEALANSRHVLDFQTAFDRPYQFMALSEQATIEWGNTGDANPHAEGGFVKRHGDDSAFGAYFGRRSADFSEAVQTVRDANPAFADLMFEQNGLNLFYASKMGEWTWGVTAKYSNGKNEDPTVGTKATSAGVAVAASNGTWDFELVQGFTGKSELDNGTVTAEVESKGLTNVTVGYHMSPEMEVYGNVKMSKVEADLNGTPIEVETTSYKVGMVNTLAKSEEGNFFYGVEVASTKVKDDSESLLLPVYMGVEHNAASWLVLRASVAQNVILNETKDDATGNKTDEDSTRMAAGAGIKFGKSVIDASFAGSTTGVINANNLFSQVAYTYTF

PopA (Bd0427; PopAΔSP) = biological target: T2, PopA (Bd0427; PopAΔSP) (Bdellovibrio bacteriovorus, UniProt Q6MQN4); test: X-ray crystallography (C222_[…] Å); assay type: binding; conditions: palmitate modelled in difference density behind loop 2 helix, carboxylate to R88; ligand not added, placed after AlphaFold3 suggestion
T2 construct: aa 21-353, signal peptide removed; selenomethionyl form A phased; homopentamer
T2 sequence (Q6MQN4 entry or part of it, stated change not applied): as the sequence (Q6MQN4 entry or part of it) above

[1] = biological target: PopAhis (mature PopA with an internal His tag in loop 2), natively folded (B. bacteriovorus HD100); test: cryo-EM structure; native PopAhis, 0.02 mg/mL in 50 mM Tris pH 8, 150 mM NaCl, 0.03% w/v DDM; 2.85 Å in C1 symmetry, 2.66 Å in C5 symmetry
[2] = biological target: PopAΔSP (Bd0427, aa 21-353), refolded (B. bacteriovorus HD100); test: crystal structure; refolded PopAΔSP in β-OG detergent; C222(1) crystal form, 2.8 Å; five copies in the asymmetric unit

Which relative swelling rate (PopAhis) does the source give for `C[C@H](N)C(=O)O` [alanine] here?
Its relative swelling rate is “only able to permit the passage of small substrates, notably glycine and alanine (Fig. 3e)”.

How did the relative swelling rate (PopAhis) turn out when `NCC(=O)O` [glycine] was run?
Its relative swelling rate is “only able to permit the passage of small substrates, notably glycine and alanine (Fig. 3e)”.

Which “X-ray crystallography (C222_1, 2.8 Å)” value (PopA (Bd0427; PopAΔSP)) does the source give for `CCCCCCCCCCCCCCCC(=O)O` [palmitate] here?
The value was “Refinement verified that palmitate fits the density well (Fig. 2h)”.

“PopAhis (mature PopA with an internal His tag in loop 2), natively folded (natural protein)” was tested. Which stoichiometry N [1] did it give?
The stoichiometry N was 5.

How did the stoichiometry N [2] turn out when “PopAΔSP (Bd0427, aa 21-353), refolded (natural protein)” was run?
Its stoichiometry N is 5.
